Test: Dissolution of the crystalline solid in water
Format: physicochemical
Details: weighed amount of crystalline mass dissolved in water
Protocol: The slurry was stirred and 50% NaOH (102.7 g) was slowly added as the flask was chilled in an ice bath to keep the temperature of the flask contents at around 75° F. Using a dropping funnel, elemental bromine (67.3 g) was dispensed at a rate of about one drop per second to the reaction medium, also with stirring and cooling to maintain a reaction temperature of 68° F. When the bromine addition was complete, the pH of the reaction medium was measured to be 1.97. A single charge of powdered trichloroisocyanuric acid (90.4% available Cl2) (33.1 g) was then delivered to the reaction medium through one of the necks of the flask. Stirring and cooling continued as normal as a fine powdery precipitate of cyanuric acid developed. After 10 minutes, 50% NaOH (11 g) was added dropwise in order to diminish the amount of bromine vapors that were fuming from the reaction medium. The cyanuric acid precipitate was then removed by vacuum filtration. […] The supernatant liquid above the crystals analyzed as 22.7% as Br2 (10.1% as Cl2), indicating the aqueous phase was losing active ingredient at the expense of crystal growth. […]

O.O=S(=O)([O-])NBr.[Na+] [hydrated sodium N-bromosulfamate]
dissolution in water: dissolved rapidly and completely

Reference: patent publication US8574605B2, “Methods for the preparation of concentrated aqueous bromine solutions and high activity bromine-containing solids” (Enviro Tech Chemical Services, Inc., priority 2004, dated 2013)
